In ChEMBL document CHEMBL5321270, “Discovery of Pyrazolone Carbothioamide Derivatives as Inhibitors of the Pdr1-KIX Interaction for Combinational Treatment of Azole-Resistant Candidiasis” (J Med Chem, 2023):
In brackets after ≈: the same amount, converted by molar mass. Activity calls are given as the source filed them. The calls are words filed in the database; no cut-off is given here.

Assays:
[1] = Inhibition of fluorescent probe FITC tagged PDR1-KIX domain (unknown origin) protein-protein interaction assessed as inhibition constant incubated for 2 hrs by fluorescence polarization binding assay
Nakaseomyces glabratus [2] = test: Antifungal activity against fluconazole-resistant Candida glabrata 0161 assessed as fungal growth inhibition incubated for 48 hrs by microplate reader assay; format: functional
Nakaseomyces glabratus [3] = test: Antifungal activity against fluconazole-resistant Candida glabrata 0161 assessed as fractional inhibitory concentration incubated for 48 hrs in presence of fluconazole by microplate reader assay; format: functional
Nakaseomyces glabratus [4] = test: Antifungal activity against fluconazole-resistant Candida glabrata 0161 assessed as fluconazole fractional inhibitory concentration incubated for 48 hrs in presence of fluconazole by microplate reader assay; format: functional
Nakaseomyces glabratus [5] = test: Synergistic antifungal activity against fluconazole-resistant Candida glabrata 0161 assessed as fractional inhibitory concentration index incubated for 48 hrs in presence of fluconazole by checkerboard microdilution method; format: functional
Nakaseomyces glabratus [6] = test: Antifungal activity against fluconazole-resistant Candida glabrata 9256 assessed as fungal growth inhibition incubated for 48 hrs by microplate reader assay; format: functional
Nakaseomyces glabratus [7] = test: Antifungal activity against fluconazole-resistant Candida glabrata 8535 assessed as fungal growth inhibition incubated for 48 hrs by microplate reader assay; format: functional
Candida albicans = test: Antifungal activity against Candida albicans assessed as fungal growth inhibition incubated for 48 hrs by microplate reader assay; format: functional
Candida tropicalis = test: Antifungal activity against Candida tropicalis 10186 assessed as fungal growth inhibition incubated for 48 hrs by microplate reader assay; format: functional
Candida parapsilosis = test: Antifungal activity against Candida parapsilosis 20090 assessed as fungal growth inhibition incubated for 48 hrs by microplate reader assay; format: functional; details: Lodderomyces parapsilosis
[Candida] auris [8] = Antifungal activity against Candida auris 0030 assessed as fungal growth inhibition incubated for 48 hrs by microplate reader assay; format: functional; details: Candidozyma auris
[Candida] auris [9] = Antifungal activity against Candida auris 15448 assessed as fungal growth inhibition incubated for 48 hrs by microplate reader assay; format: functional; details: Candidozyma auris
Aspergillus fumigatus = test: Antifungal activity against Aspergillus fumigatus 7544 assessed as fungal growth inhibition incubated for 48 hrs by microplate reader assay; format: functional
Nannizzia gypsea = test: Antifungal activity against Microsporum gypseum assessed as fungal growth inhibition incubated for 48 hrs by microplate reader assay; format: functional
Trichophyton rubrum = test: Antifungal activity against Trichophyton rubrum assessed as fungal growth inhibition incubated for 48 hrs by microplate reader assay; format: functional
Cryptococcus neoformans = test: Antifungal activity against Cryptococcus neoformans H99 assessed as fungal growth inhibition incubated for 48 hrs by microplate reader assay; format: functional
Nakaseomyces glabratus [10] = test: Antifungal activity against FLC-resistant Candida glabrata 0161 infected in cyclophosphamide immunosuppressed ICR mouse model assessed as inhibition of fungal growth in kidney at 40 mg/kg,ip administrated for 5 days; format: functional, organism-based; details: time 5.0 day
[11] = Binding affinity to Candida glabrata KIX domain assessed as dissociation constant; design: species or system Nakaseomyces glabratus
[12] = Aqueous solubility of compound; format: physicochemical

## Nc1cc(=O)n(C(=S)Nc2ccc(Cl)nc2)[nH]1
[1]
  Ki: 144 µM
Nakaseomyces glabratus [2]
  MIC: 0.5 µg/mL (≈ 1.85 µM)
Nakaseomyces glabratus [3]
  FIC: 0.25 µg/mL
Nakaseomyces glabratus [4]
  fluconazole MIC in combination: 0.5 µg/mL
Nakaseomyces glabratus [5]
  fractional inhibitory concentration index (FICI): 0.52
Nakaseomyces glabratus [6]
  MIC: 0.25 µg/mL (≈ 0.927 µM)
Nakaseomyces glabratus [7]
  MIC: 0.25 µg/mL (≈ 0.927 µM)
Candida albicans
  MIC: 4 µg/mL (≈ 14.8 µM)
Candida tropicalis
  MIC: 4 µg/mL (≈ 14.8 µM)
Candida parapsilosis
  MIC: 4 µg/mL (≈ 14.8 µM)
[Candida] auris [8]
  MIC: 2 µg/mL (≈ 7.42 µM)
[Candida] auris [9]
  MIC: 2 µg/mL (≈ 7.42 µM)
Aspergillus fumigatus
  MIC: 16 µg/mL (≈ 59.3 µM)
Nannizzia gypsea
  MIC: 1 µg/mL (≈ 3.71 µM)
Trichophyton rubrum
  MIC: 1 µg/mL (≈ 3.71 µM)
Cryptococcus neoformans
  MIC: 0.063 µg/mL (≈ 0.234 µM)

## Nc1cc(=O)n(C(=S)Nc2cccc(Cl)c2Cl)[nH]1
[1]
  Ki: 27.2 µM
Nakaseomyces glabratus [2]
  MIC: 0.25 µg/mL (≈ 0.825 µM)
Nakaseomyces glabratus [3]
  FIC: 0.063 µg/mL
Nakaseomyces glabratus [4]
  fluconazole MIC in combination: 2 µg/mL
Nakaseomyces glabratus [5]
  fractional inhibitory concentration index (FICI): 0.31
Nakaseomyces glabratus [6]
  MIC: 0.25 µg/mL (≈ 0.825 µM)
Nakaseomyces glabratus [7]
  MIC: 0.25 µg/mL (≈ 0.825 µM)
Candida albicans
  MIC: 4 µg/mL (≈ 13.2 µM)
Candida tropicalis
  MIC: 4 µg/mL (≈ 13.2 µM)
Candida parapsilosis
  MIC: 4 µg/mL (≈ 13.2 µM)
[Candida] auris [8]
  MIC: 2 µg/mL (≈ 6.6 µM)
[Candida] auris [9]
  MIC: 2 µg/mL (≈ 6.6 µM)
Aspergillus fumigatus
  MIC: 16 µg/mL (≈ 52.8 µM)
Nannizzia gypsea
  MIC: 1 µg/mL (≈ 3.3 µM)
Trichophyton rubrum
  MIC: 1 µg/mL (≈ 3.3 µM)
Cryptococcus neoformans
  MIC: 0.063 µg/mL (≈ 0.208 µM)

## Nc1cc(=O)n(C(=S)Nc2ccc(Cl)cc2)[nH]1
[1]
  Ki: 54.5 µM
Nakaseomyces glabratus [2]
  MIC: 0.25 µg/mL (≈ 0.93 µM)
Nakaseomyces glabratus [3]
  FIC: 0.063 µg/mL
Nakaseomyces glabratus [4]
  fluconazole MIC in combination: 2 µg/mL
Nakaseomyces glabratus [5]
  fractional inhibitory concentration index (FICI): 0.31
Nakaseomyces glabratus [6]
  MIC: 0.25 µg/mL (≈ 0.93 µM)
Nakaseomyces glabratus [7]
  MIC: 0.25 µg/mL (≈ 0.93 µM)
Candida albicans
  MIC: 4 µg/mL (≈ 14.9 µM)
Candida tropicalis
  MIC: 4 µg/mL (≈ 14.9 µM)
Candida parapsilosis
  MIC: 4 µg/mL (≈ 14.9 µM)
[Candida] auris [8]
  MIC: 2 µg/mL (≈ 7.44 µM)
[Candida] auris [9]
  MIC: 2 µg/mL (≈ 7.44 µM)
Aspergillus fumigatus
  MIC: 16 µg/mL (≈ 59.5 µM)
Nannizzia gypsea
  MIC: 1 µg/mL (≈ 3.72 µM)
Trichophyton rubrum
  MIC: 1 µg/mL (≈ 3.72 µM)
Cryptococcus neoformans
  MIC: 0.063 µg/mL (≈ 0.234 µM)

## Nc1cc(=O)n(C(=S)Nc2ccc(Cl)c(Cl)c2)[nH]1
[1]
  Ki: 109 µM
Nakaseomyces glabratus [2]
  MIC: 0.25 µg/mL (≈ 0.825 µM)
Nakaseomyces glabratus [3]
  FIC: 0.13 µg/mL
Nakaseomyces glabratus [4]
  fluconazole MIC in combination: 0.25 µg/mL
Nakaseomyces glabratus [5]
  fractional inhibitory concentration index (FICI): 0.53
Nakaseomyces glabratus [6]
  MIC: 0.25 µg/mL (≈ 0.825 µM)
Nakaseomyces glabratus [7]
  MIC: 0.25 µg/mL (≈ 0.825 µM)
Candida albicans
  MIC: 4 µg/mL (≈ 13.2 µM)
Candida tropicalis
  MIC: 4 µg/mL (≈ 13.2 µM)
Candida parapsilosis
  MIC: 4 µg/mL (≈ 13.2 µM)
[Candida] auris [8]
  MIC: 2 µg/mL (≈ 6.6 µM)
[Candida] auris [9]
  MIC: 2 µg/mL (≈ 6.6 µM)
Aspergillus fumigatus
  MIC: 16 µg/mL (≈ 52.8 µM)
Nannizzia gypsea
  MIC: 1 µg/mL (≈ 3.3 µM)
Trichophyton rubrum
  MIC: 1 µg/mL (≈ 3.3 µM)
Cryptococcus neoformans
  MIC: 0.063 µg/mL (≈ 0.208 µM)

## Nc1cc(=O)n(C(=S)Nc2ccccc2Cl)[nH]1
[1]
  Ki: 85.8 µM
Nakaseomyces glabratus [2]
  MIC: 0.5 µg/mL (≈ 1.86 µM)
Nakaseomyces glabratus [3]
  FIC: 0.13 µg/mL
Nakaseomyces glabratus [4]
  fluconazole MIC in combination: 16 µg/mL
Nakaseomyces glabratus [5]
  fractional inhibitory concentration index (FICI): 0.76
Nakaseomyces glabratus [6]
  MIC: 0.25 µg/mL (≈ 0.93 µM)
Nakaseomyces glabratus [7]
  MIC: 0.25 µg/mL (≈ 0.93 µM)
Candida albicans
  MIC: 4 µg/mL (≈ 14.9 µM)
Candida tropicalis
  MIC: 4 µg/mL (≈ 14.9 µM)
Candida parapsilosis
  MIC: 4 µg/mL (≈ 14.9 µM)
[Candida] auris [8]
  MIC: 2 µg/mL (≈ 7.44 µM)
[Candida] auris [9]
  MIC: 2 µg/mL (≈ 7.44 µM)
Aspergillus fumigatus
  MIC: 16 µg/mL (≈ 59.5 µM)
Nannizzia gypsea
  MIC: 1 µg/mL (≈ 3.72 µM)
Trichophyton rubrum
  MIC: 1 µg/mL (≈ 3.72 µM)
Cryptococcus neoformans
  MIC: 0.063 µg/mL (≈ 0.234 µM)

## Nc1cc(=O)n(C(=S)Nc2ccc(Cl)cc2Cl)[nH]1
[1]
  Ki: 84.7 µM
Nakaseomyces glabratus [2]
  MIC: 0.5 µg/mL (≈ 1.65 µM)
Nakaseomyces glabratus [3]
  FIC: 0.13 µg/mL
Nakaseomyces glabratus [4]
  fluconazole MIC in combination: 1 µg/mL
Nakaseomyces glabratus [5]
  fractional inhibitory concentration index (FICI): 0.29
Nakaseomyces glabratus [6]
  MIC: 0.25 µg/mL (≈ 0.825 µM)
Nakaseomyces glabratus [7]
  MIC: 0.25 µg/mL (≈ 0.825 µM)
Candida albicans
  MIC: 4 µg/mL (≈ 13.2 µM)
Candida tropicalis
  MIC: 4 µg/mL (≈ 13.2 µM)
Candida parapsilosis
  MIC: 4 µg/mL (≈ 13.2 µM)
[Candida] auris [8]
  MIC: 2 µg/mL (≈ 6.6 µM)
[Candida] auris [9]
  MIC: 2 µg/mL (≈ 6.6 µM)
Aspergillus fumigatus
  MIC: 16 µg/mL (≈ 52.8 µM)
Nannizzia gypsea
  MIC: 1 µg/mL (≈ 3.3 µM)
Trichophyton rubrum
  MIC: 1 µg/mL (≈ 3.3 µM)
Cryptococcus neoformans
  MIC: 0.063 µg/mL (≈ 0.208 µM)

## N#CCC(=O)NNC(=S)Nc1ccc(Cl)c(Cl)c1
[1]
  Ki: 29.2 µM
Nakaseomyces glabratus [10]
  Activity: Active
[11]
  Kd: 2.8 µM
Nakaseomyces glabratus [2]
  MIC: 32 µg/mL (≈ 106 µM)
Nakaseomyces glabratus [3]
  FIC: 8 µg/mL
Nakaseomyces glabratus [4]
  fluconazole MIC in combination: 2 µg/mL
Nakaseomyces glabratus [5]
  fractional inhibitory concentration index (FICI): 0.31
[12]
  solubility: 9.12 µg/mL (≈ 30.1 µM)

## Nc1cc(=O)n(C(=S)Nc2ccc(I)cc2)[nH]1
[1]
  Ki: 137 µM
Nakaseomyces glabratus [2]
  MIC: 0.25 µg/mL (≈ 0.694 µM)
Nakaseomyces glabratus [3]
  FIC: 0.13 µg/mL
Nakaseomyces glabratus [4]
  fluconazole MIC in combination: 0.25 µg/mL
Nakaseomyces glabratus [5]
  fractional inhibitory concentration index (FICI): 0.53
Nakaseomyces glabratus [6]
  MIC: 0.25 µg/mL (≈ 0.694 µM)
Nakaseomyces glabratus [7]
  MIC: 0.25 µg/mL (≈ 0.694 µM)
Candida albicans
  MIC: 4 µg/mL (≈ 11.1 µM)
Candida tropicalis
  MIC: 4 µg/mL (≈ 11.1 µM)
Candida parapsilosis
  MIC: 4 µg/mL (≈ 11.1 µM)
[Candida] auris [8]
  MIC: 2 µg/mL (≈ 5.55 µM)
[Candida] auris [9]
  MIC: 2 µg/mL (≈ 5.55 µM)
Aspergillus fumigatus
  MIC: 16 µg/mL (≈ 44.4 µM)
Nannizzia gypsea
  MIC: 1 µg/mL (≈ 2.78 µM)
Trichophyton rubrum
  MIC: 1 µg/mL (≈ 2.78 µM)
Cryptococcus neoformans
  MIC: 0.063 µg/mL (≈ 0.175 µM)
